Active and inactive are the calls of the source.
Tests used:
Major prion protein = Major prion protein (Homo sapiens, UniProt P04156); format: functional, cell-based
Cytochrome P450 2D6 = Cytochrome P450 2D6 (Homo sapiens, UniProt P10635);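 note: CYP2D6 member of a cytochrome P450 panel assay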
cells [1] = assay: cells
[2] = HGIII-sPLA2 enzyme inhibition potency – biochemical, QFRET, IC50, dose response (AID 743457);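 note: green fluorescence rise as the enzyme cleaves BODIPY PC-A2 in liposomes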
Albumin = Albumin (Bos taurus, UniProt P02769); assay: Counterscreen for inhibitors of T-cell receptor (TCR)-CD3 interaction: Fluorescence-based biochemical high throughput dose response assay to identify inhibitors of T-cell receptor (TCR)-CD3 interaction using a TAMRA-labeled BSA probe.; format: functional
[3] = biological target: T1, Oxysterols receptor LXR-beta (Homo sapiens, UniProt P55055); format: functional, cell-based;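 note: Cell-based luminescence dose-response assay of agonist activity at LXR, run as a confirmatory counterscreen to a daf-12 agonist screen; HEK293 cells with Gal4-LXR fusion and GAL4-driven luciferase reporter; agonist potency from rising luciferase signal of a Gal4-LXR reporter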
T1 sequence (P55055 whole entry): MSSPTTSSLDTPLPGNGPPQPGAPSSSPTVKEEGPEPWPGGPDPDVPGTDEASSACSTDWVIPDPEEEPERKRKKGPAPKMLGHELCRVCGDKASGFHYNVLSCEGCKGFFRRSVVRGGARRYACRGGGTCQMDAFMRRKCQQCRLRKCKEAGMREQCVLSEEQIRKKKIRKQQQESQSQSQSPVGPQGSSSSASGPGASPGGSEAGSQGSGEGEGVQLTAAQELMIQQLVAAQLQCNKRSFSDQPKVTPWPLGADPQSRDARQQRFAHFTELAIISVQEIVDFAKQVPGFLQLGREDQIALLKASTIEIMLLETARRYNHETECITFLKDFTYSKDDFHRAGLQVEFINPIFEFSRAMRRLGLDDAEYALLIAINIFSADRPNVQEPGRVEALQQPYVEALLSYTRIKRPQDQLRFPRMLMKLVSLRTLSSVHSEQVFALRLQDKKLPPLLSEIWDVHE

cells [4] = assay: cells; remark: listed apart in the source
[5] = biological target: T2, Polyadenylate-binding protein 1 (Homo sapiens, UniProt P11940); assay: MLLE binding blockers, Cy5 peptide tracer – biochemical, fluorescence polarization, Cy5-PAM2 peptide, secondary, miRNA deadenylation inhibitor project, dose response (AID 602260); format: functional; details: read-out: IC50_Mean
[6] = biological target: T2, Polyadenylate-binding protein 1; assay: MLLE domain peptide-binding blockers, IC50 – biochemical, fluorescence polarization, FITC-PAM2 peptide, dose response (AID 602259); format: functional; details: read-out: IC50_Mean
Nonstructural protein 1 = Nonstructural protein 1 (Influenza A virus, UniProt Q194T2); format: functional, Influenza A virus (A/California/07/2009(H1N1))
[7] = biological target: Peroxisome proliferator-activated receptor gamma/Nuclear receptor coactivator 1 (Homo sapiens, UniProt P37231); assay: (§1) TR-FRET dose response biochemical High Throughput Screening assay for agonists of the steroid receptor coactivator 1 (SRC-1) recruitment by the peroxisome proliferator-activated receptor gamma (PPAR gamma): non-selective agonists. [Related pubchem assays (depositor defined):AID1300, AID1808, AID504735, AID631]; format: protein assay
[8] = biological target: Peroxisome proliferator-activated receptor gamma/Nuclear receptor coactivator 3 (Homo sapiens, UniProt P37231); assay: as §1, with “3 (SRC-3)” for “1 (SRC-1)”, “assays: 1301 (Confirmation screen.), 1048 (Primary screen.)]” for “assays (depositor defined):AID1300, AID1808, AID504735, AID631]”; format: functional
[9] = biological target: Peroxisome proliferator-activated receptor gamma/Nuclear receptor coactivator 2 (Homo sapiens, UniProt P37231); assay: TR-FRET dose response biochemical High Throughput Screening assay for agonists of the steroid receptor coactivator 2 (SRC-2) recruitment by the peroxisome proliferator-activated receptor gamma (PPAR gamma): non-selective agonists. [Related pubchem assays: 1297, 1032 ]; format: functional
Cytochrome P450 2C9 = Cytochrome P450 2C9 (Homo sapiens, UniProt P11712)
[10] = biological target: T3, Rac GTPase-activating protein 1 (Homo sapiens, UniProt Q9H0H5); assay: blockers of MgcRacGAP-driven Rac1 GTP hydrolysis – biochemical, ADP Hunter fluorescence, primary and confirmatory, confirmation (AID 624330); format: functional
T3 sequence (Q9H0H5 whole entry): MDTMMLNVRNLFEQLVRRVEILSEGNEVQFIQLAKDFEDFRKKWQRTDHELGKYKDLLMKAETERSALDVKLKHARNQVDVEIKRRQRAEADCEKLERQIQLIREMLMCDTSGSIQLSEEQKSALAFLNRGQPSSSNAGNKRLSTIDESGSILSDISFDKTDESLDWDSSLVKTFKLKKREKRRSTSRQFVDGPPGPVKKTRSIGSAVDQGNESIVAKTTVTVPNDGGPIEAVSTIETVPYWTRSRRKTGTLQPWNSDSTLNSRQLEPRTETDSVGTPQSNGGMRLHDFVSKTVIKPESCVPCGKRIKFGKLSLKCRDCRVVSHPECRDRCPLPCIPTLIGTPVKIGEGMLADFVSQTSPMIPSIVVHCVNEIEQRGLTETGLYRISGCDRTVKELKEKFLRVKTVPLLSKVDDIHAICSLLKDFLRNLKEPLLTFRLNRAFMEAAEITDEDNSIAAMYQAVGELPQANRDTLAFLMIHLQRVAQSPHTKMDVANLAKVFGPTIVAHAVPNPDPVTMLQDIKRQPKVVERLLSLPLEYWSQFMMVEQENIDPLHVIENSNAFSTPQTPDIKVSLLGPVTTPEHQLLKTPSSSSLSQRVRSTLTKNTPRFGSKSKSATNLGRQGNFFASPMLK

Aminopeptidase N = biological target: T4, Aminopeptidase N (Plasmodium falciparum FcB1/Columbia, UniProt O96935); assay: malaria alanyl aminopeptidase activity blockers – biochemical, fluorogenic H-Leu-NHMec substrate, 1536-well (AID 1445); design: species or system Plasmodium falciparum 3D7, 3D7
T4 sequence (O96935 whole entry): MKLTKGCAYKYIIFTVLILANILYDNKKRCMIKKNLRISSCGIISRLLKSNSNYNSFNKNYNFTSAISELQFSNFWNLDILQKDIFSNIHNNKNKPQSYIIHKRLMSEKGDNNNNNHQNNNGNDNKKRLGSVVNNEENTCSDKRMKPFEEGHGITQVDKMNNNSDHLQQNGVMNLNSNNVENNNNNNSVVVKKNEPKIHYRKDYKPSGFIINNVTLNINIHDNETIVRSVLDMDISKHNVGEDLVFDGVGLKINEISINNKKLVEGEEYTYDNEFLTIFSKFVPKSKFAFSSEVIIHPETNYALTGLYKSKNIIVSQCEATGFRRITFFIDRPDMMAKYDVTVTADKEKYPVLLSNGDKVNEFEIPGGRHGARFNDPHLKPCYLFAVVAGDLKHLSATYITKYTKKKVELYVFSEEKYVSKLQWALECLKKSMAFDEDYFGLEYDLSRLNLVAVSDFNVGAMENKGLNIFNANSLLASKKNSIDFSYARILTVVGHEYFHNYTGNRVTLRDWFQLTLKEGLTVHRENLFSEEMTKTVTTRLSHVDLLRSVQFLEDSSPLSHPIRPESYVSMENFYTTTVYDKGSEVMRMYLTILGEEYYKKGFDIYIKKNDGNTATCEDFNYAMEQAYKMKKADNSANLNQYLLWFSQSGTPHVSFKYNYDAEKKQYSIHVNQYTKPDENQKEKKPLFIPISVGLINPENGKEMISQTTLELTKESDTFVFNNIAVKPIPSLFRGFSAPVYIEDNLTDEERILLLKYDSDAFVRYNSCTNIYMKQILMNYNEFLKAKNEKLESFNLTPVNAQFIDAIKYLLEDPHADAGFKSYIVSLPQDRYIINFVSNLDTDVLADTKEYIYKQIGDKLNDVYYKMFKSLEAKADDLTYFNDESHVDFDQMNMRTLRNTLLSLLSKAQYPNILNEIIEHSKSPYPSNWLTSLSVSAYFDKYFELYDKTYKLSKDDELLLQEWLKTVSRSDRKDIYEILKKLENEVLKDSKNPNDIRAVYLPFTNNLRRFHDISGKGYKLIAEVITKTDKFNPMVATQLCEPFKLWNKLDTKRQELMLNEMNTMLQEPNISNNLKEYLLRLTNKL

[11] = test system: Streptococcus sp. 'group A'; assay: Streptococcus pyogenes SK(-)GAS viability under kanamycin – luminescence, BacTiterGlo, confirmation, counter-screen for streptokinase expression inhibitor project, dose response (AID 1900); format: functional, organism-based
Streptococcus = assay: GAS UMAA2166 growth inhibition – luminescence, BacTiterGlo, counter-screen for streptokinase expression inhibitor project, dose response (AID 1915); format: functional, organism-based;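 note: potency for reduction of bacterial viability or growth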
[12] = general mammalian cell viability loss – activator set, cherry-pick, cytotoxicity control for miR-122 modulator project, dose response (AID 720690); format: functional, cell-based;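 note: HEK293T human cells scored for general mammalian cytotoxicity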
[13] = biological target: T5, Histone-lysine N-methyltransferase NSD2 (Homo sapiens, UniProt O96028); format: biochemical
T5 sequence (O96028 whole entry): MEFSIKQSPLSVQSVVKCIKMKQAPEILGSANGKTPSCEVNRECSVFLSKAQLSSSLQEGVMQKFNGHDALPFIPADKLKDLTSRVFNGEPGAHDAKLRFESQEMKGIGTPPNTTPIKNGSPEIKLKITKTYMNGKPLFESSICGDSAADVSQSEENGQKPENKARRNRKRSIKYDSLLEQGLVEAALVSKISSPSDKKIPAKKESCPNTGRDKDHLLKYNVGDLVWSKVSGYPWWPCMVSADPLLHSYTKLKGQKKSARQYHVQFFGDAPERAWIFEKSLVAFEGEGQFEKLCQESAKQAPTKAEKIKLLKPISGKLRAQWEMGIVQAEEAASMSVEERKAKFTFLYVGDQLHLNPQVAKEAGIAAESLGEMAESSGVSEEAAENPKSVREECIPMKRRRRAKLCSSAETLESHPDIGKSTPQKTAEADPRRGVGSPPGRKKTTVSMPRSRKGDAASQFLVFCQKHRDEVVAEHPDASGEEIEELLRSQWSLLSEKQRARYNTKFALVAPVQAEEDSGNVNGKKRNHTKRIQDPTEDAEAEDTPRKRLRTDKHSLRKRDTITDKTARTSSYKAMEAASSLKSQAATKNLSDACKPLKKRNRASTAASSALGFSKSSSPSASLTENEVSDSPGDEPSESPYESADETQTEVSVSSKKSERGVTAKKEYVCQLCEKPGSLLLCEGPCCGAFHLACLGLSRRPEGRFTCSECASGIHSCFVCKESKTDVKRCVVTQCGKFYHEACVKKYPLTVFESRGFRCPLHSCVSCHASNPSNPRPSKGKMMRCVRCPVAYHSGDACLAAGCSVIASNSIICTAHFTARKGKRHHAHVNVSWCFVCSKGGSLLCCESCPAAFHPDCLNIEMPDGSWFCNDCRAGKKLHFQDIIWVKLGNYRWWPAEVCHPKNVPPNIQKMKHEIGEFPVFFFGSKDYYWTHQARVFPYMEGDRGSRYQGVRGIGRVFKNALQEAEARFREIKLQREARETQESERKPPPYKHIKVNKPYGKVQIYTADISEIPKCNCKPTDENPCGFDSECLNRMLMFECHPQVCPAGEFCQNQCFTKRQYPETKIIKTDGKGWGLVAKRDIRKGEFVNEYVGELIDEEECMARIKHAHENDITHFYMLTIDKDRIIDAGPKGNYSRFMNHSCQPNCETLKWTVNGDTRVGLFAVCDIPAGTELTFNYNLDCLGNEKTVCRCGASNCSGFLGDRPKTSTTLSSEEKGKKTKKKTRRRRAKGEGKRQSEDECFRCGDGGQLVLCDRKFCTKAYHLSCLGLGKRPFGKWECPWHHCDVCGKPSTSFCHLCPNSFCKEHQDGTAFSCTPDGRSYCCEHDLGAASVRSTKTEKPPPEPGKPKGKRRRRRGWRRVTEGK

Structure (SMILES): Clc1cccc(Nc2ncnc3ccc(Br)cc23)c1
- IC50 (Major prion protein): 6.28 µM (active)
- AC50 (Cytochrome P450 2D6): 31.6 µM (inconclusive)
- IC50 (cells [1]): 122 µM (inactive)

Structure (SMILES): CCN(CC)S(=O)(=O)c1ccc(NC(=O)CSc2ncnc3ccccc23)cc1
- IC50 (Major prion protein): 7.17 µM (active)
- IC50 (cells [1]): > 138 µM (inactive)

Structure (SMILES): CCOc1cc(NC(=O)C(C)C)c(OCC)cc1N=C(S)NCc1ccccc1
- IC50 [2]: > 122 µM (inactive)

Structure (SMILES): COc1cccc(OCC(=O)NNC(=O)c2ccc3ccccc3c2O)c1
- IC50 (Albumin): > 94.1 µM (inactive)
- IC50 [2]: > 122 µM (inactive)

Structure (SMILES): COc1ccc(-c2cc3ccccc3c(=O)o2)cc1
- EC50 [3]: > 67.5 µM (inactive)
- EC50 (cells [4]): > 67.5 µM (inactive)

Structure (SMILES): CC(C)c1nc(SCC(=O)N2CC(=O)Nc3ccccc32)c2ccccc2n1
- IC50 (Major prion protein): 2.41 µM (active)
- IC50 (cells [1]): 67.3 µM (inactive)

Structure (SMILES): O=C(CSc1ncnc2ccccc12)NCc1ccco1
- IC50 [5]: > 66 µM (inactive)
- IC50 [6]: > 66 µM (inactive)
- IC50 (Major prion protein): 6.83 µM (active)
- IC50 (cells [1]): > 138 µM (inactive)

Structure (SMILES): O=C1c2ccccc2C(=O)c2c1cccc2N1CCOCC1
- IC50 (Nonstructural protein 1): 19.7 µM (active)
- IC50 [2]: > 122 µM (inactive)

Structure (SMILES): c1ccc(Cc2nnc(Sc3ccccc3)c3ccccc23)cc1
- EC50 [7]: > 79.4 µM (inactive)
- EC50 [8]: > 79.4 µM (not active)
- EC50 [9]: 2.35 µM (active)
- IC50 (Major prion protein): 6.51 µM (active)
- AC50 (Cytochrome P450 2C9): 25.1 µM (inconclusive)
- IC50 (cells [1]): 64 µM (inactive)

Structure (SMILES): Cc1ccc(Nc2nnc(S)s2)c(C)c1
- IC50 [10]: 154 µM (active)
- IC50 [2]: > 122 µM (inactive)

Structure (SMILES): Cc1[nH]n(-c2ccccc2)c(=O)c1N=Nc1ccccc1O
- IC50 (Aminopeptidase N): < 1 µM (active)
- EC50 [11]: 1.48 µM (active)
- EC50 (Streptococcus): 2.12 µM (active)
- IC50 (Albumin): > 94.1 µM (inactive)

Structure (SMILES): COCC(=O)N1[C@H](CO)[C@@H](c2ccccc2)[C@H]1CNC(=O)c1ccccn1
- AC50 [12]: 37.2 µM (active)

Structure (SMILES): O=C(Nc1ccc(Cl)cc1)N1C[C@H]2[C@@H](c3ccccc31)[C@H](CO)N2CC1CCCCC1
- AC50 [12]: 28.7 µM (active)

Structure (SMILES): CC1CCCC(C)N1/N=C/c1ccc(O)c(O)c1 (centres undefined)
- IC50 (Albumin): > 94.1 µM (inactive)
- AC50 [13]: 9.77 µM (active)

Source: ChEMBL document CHEMBL1201862, “PubChem BioAssay data set” (2004)
